According to patent US4427582A, “Antimicrobial disulfide prodrugs” (SmithKline Beckman Corporation, priority 1982, dated 1984):
Where a SMILES comes first, the peptide text is derived from it. The star is where a group is joined. SPy = c1ccc(S*)nc1

Assays:
Candida albicans β311 = assay: Disk activity against Candida albicans β311; assay type: cell-based
Description: (§1) For example, disk activity against Candida albicans β311 for the prodrug was 0.04 minimal inhibitory concentration with 0.01 for the warhead alone.

E. coli CB64recA/F'123 = assay: Disc assay for inhibition on seeded agar plates (zones of inhibition after overnight incubation); assay type: cell-based, Escherichia coli; set-up: unit not given here; conditions: for Zones of inhibition diameter: section C
Protocol: The medium was that of Davis and Mingioli, supplemented with 4 μg/ml of thiamine and 50 μg/ml of required amino acid supplements with 1.5% agar for solid media. Seeded agar plates contained 0.1 ml of an overnight culture per 20 ml of molten agar (kept at 49°) containing appropriate supplements.
[…] of test solution was added to 1/4" diameter paper discs and the discs placed on the surface of agar plates which were incubated overnight at 37°. The bacterial strains of E. coli, whose strains are given hereafter, were obtained from the E. coli Genetic Stock Center.
Zones of inhibition on seeded agar plates after overnight incubation.

Fungal = Fungal activity in vitro, prodrug compared with non-latentiated warhead; assay type: cell-based
Description: as §1

[1] = 200 nmol per disc, overnight incubation
[2] = 800 nmol per disc, overnight incubation
[3] = 800 nmol per disc, overnight incubation, section B

## [O-][n+]1ccccc1S [2-mercaptopyridyl-1-one, reference compound]
Candida albicans β311
  minimal inhibitory concentration (disk activity): 0.01

## C[C@H](N)C(=O)N[C@@H](C)C(=O)N[C@@H](CSSCCNc1cc(C(=O)O)nc(C(=O)O)c1)C(=O)O [L-Ala--L-Ala--L-Ala--S--MEPDA, L-alanyl-L-alanyl-β-L-alanyl 2-(2,6-dicarboxy-pyridyl-4)-aminoethyl disulfide]
E. coli CB64recA/F'123; 30 nmol, tripeptide alone, section D
  Zone of inhibition diameter: 11
E. coli CB64recA/F'123; 40 nmol per disc, overnight incubation
  Zones of inhibition diameter: 9
E. coli CB64recA/F'123; 60 nmol, tripeptide alone, section D
  Zone of inhibition diameter: 15
E. coli CB64recA/F'123; [1]
  Zones of inhibition diameter: 16
E. coli CB64recA/F'123; [2]
  Zones of inhibition diameter: 24

## C[C@H](N)C(=O)N[C@@H](CSSc1ccccn1)C(=O)O [L-Ala--L-Ala--S--2MP, L-alanyl-β-L-alanyl 2-pyridyl disulfide] (H-Ala-Cys(SPy)-OH)
E. coli CB64recA/F'123; [3]
  Zone of inhibition diameter: 15

## C[C@H](N)C(=O)N[C@@H](C)C(=O)N[C@@H](CSSc1ccccn1)C(=O)O [L-ala- L-Ala--L-ala- S--2MP, L-alanyl-L-alanyl-β-L-alanyl 2-pyridyl disulfide] (H-Ala-Ala-Cys(SPy)-OH)
E. coli CB64recA/F'123; 40 nmol per disc, overnight incubation, section B
  Zone of inhibition diameter: ( )
E. coli CB64recA/F'123; 200 nmol per disc, overnight incubation, section B
  Zone of inhibition diameter: 14
E. coli CB64recA/F'123; [3]
  Zone of inhibition diameter: 25

## C[C@H](NC(=O)C(N)CCCN)C(=O)N[C@@H](CSSCCNc1cc(C(=O)O)nc(C(=O)O)c1)C(=O)O (stereo partly drawn) [Orn--L-Ala--L-Ala--S--MEPDA]
E. coli CB64recA/F'123; [1]
  Zones of inhibition diameter: 10
E. coli CB64recA/F'123; [2]
  Zones of inhibition diameter: 12

## NCCCC(N)C(=O)NC(CSSCCNc1cc(C(=O)O)nc(C(=O)O)c1)C(=O)O [Orn--L-Ala--S--MEPDA]
E. coli CB64recA/F'123; 250-500 nmol per disc, overnight incubation
  Zones of inhibition diameter: 13

## L-alanyl-β-L-alanyl N-oxy 2-pyridyl disulfide
Potential for irritation
  potential for irritation relative to 2-mercaptopyridyl-1-one: lower potential for irritation
Fungal
  activity in vitro relative to 2-mercaptopyridyl-1-one in non-latentiated form: generally less activity
Candida albicans β311
  minimal inhibitory concentration (disk activity): 0.04
